Legend:
Type in all cases: in vivo
Pansy plants [1] = test: Pansy shelf life under drought (daily wilting rating, sales index)
Method in brief: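 Greenhouse pansies were treated with 20 mL solution each, 3 mL foliar plus 17 mL root drench, then watering was withheld. Wilting was rated daily on a 1–4 scale, and shelf life was the day before the rating reached 2.5. Yellow leaves were counted 3 days after treatment.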

Pansy plants [2] = test: Pansy yellow leaf number (leaf yellowing)
Method: All studies were conducted in the greenhouse at the research farm of Valent BioSciences Corporation (Long Grove, Ill.). Pansy plants were obtained either from local retailers as mature plants, or plugs from wholesale nurseries. Plugs of Pansy plants were transplanted into an 18-cell flat filled with Promix BX (available from Premier Horticulture Inc. Quakertown, Pa.) and grown for about 30 days prior to treatment. During growing periods, plants received daily irrigation and weekly fertilizer (1 g/L all purpose fertilizer 20-20-20, The Scotts Company, Marysville, Ohio).
(§1) Uniform plants were selected for the study. Prior to chemical treatment, plants were saturated with water and then drained for about two hours. A total of 20 mL chemical solution, which is equivalent to about 10% of the cell volume, was applied to each plant with 3 mL solution foliar applied to canopy and 17 mL solution drench applied to root zone. Unless specified, watering of plants was stopped after chemical treatment.
After chemical treatment, plants were arranged in a randomized complete block experimental design. The plants were rated daily for the extent of wilting on a scale from 1 (no wilting) to 4 (complete wilting) to generated a sales index rating. A rating of 2.5 was the point at which a plant was determined to be unmarketable and the previous day was recorded as the shelf life of that plant in days. […] Leaf transpiration rate was measured after treatment using a LI-1600 Steady State Porometer (LI-Cor, Lincoln, Nebr.). The transpiration rate of each treatment was calculated as the percentage of that of control at each day to reduce day-to-day variation caused by changes of environmental condition such as light intensity, humidity, and temperature.

Pansy plants [3] = test: Pansy leaf transpiration rate (LI-1600 Steady State Porometer); conditions: Matrix Premium Rose
Method: as §1
After chemical treatment, plants were arranged in a randomized complete block experimental design. The plants were rated daily for the extent of wilting on a scale from 1 (no wilting) to 4 (complete wilting) to generated a sales index rating. A rating of 2.5 was the point at which a plant was determined to be unmarketable and the previous day was recorded as the shelf life of that plant in days. Yellow leaf number was counted at 3 days after chemical treatment. Leaf transpiration rate was measured after treatment using a LI-1600 Steady State Porometer (LI-Cor, Lincoln, Nebr.). The transpiration rate of each treatment was calculated as the percentage of that of control at each day to reduce day-to-day variation caused by changes of environmental condition such as light intensity, humidity, and temperature.

Work on `c1ccc(CNc2ncnc3nc[nH]c23)cc1` [BA, 6-benzylaminopurine] yielded a Shelf life (Pansy plants [1]; 0.2 mg BA, Matrix Yellow, Table 5) of 3.8 days, a Shelf life (Pansy plants [1]; 0.2 mg BA, no water, Whispers White, Table 15) of 2.5 days and a Shelf life (Pansy plants [1]; 2 mg BA at 0 d, Matrix Premium Rose, Table 11) of 3.7 days. It also gave a Shelf life (Pansy plants [1]; 2 mg BA at +1 d, Matrix Premium Rose, Table 11) of 4.0 days, a Shelf life (Pansy plants [1]; 2 mg BA at −1 d (1 day prior to ABA treatment day), Matrix Premium Rose, Table 11) of 3.8 days and a Shelf life (Pansy plants [1]; 2 mg BA, Delta Premium Pure White, Table 23) of 4.0 days. For the same compound, the Shelf life (Pansy plants [1]; 2 mg BA, Matrix Yellow, Table 5) was 3.8 days, the Shelf life (Pansy plants [1]; 2 mg BA, no water, Matrix Premium Rose, Table 13) was 4.0 days and the Shelf life (Pansy plants [1]; 2 mg BA, no water, Whispers White, Table 15) was 2.7 days. It also gave a Shelf life (Pansy plants [1]; 2 mg, Clear Sky Yellow, drought, Table 8) of 3.8 days, a Shelf life (Pansy plants [1]; 2 mg, Crown Azure Blue, drought, Table 9) of 3.3 days and a Shelf life (Pansy plants [1]; 2 mg, Matrix Yellow, drought, Table 7) of 3.5 days. It also gave a Shelf life (Pansy plants [1]; 2 mg, Matrix Yellow, drought, Table 10) of 2.3 days, a Yellow leaf number (Pansy plants [2]; 0.2 mg BA, Matrix Yellow, 3 d after treatment, Table 5) of 1.8 and a Yellow leaf number (Pansy plants [2]; 0.2 mg BA, no water, Whispers White, 3 d after treatment, Table 15) of 7.8. The Yellow leaf number (Pansy plants [2]; 2 mg BA at 0 d, Matrix Premium Rose, 3 d after treatment, Table 11) was 0.8, the Yellow leaf number (Pansy plants [2]; 2 mg BA at +1 d, Matrix Premium Rose, 3 d after treatment, Table 11) was 0.8 and the Yellow leaf number (Pansy plants [2]; 2 mg BA at −1 d, Matrix Premium Rose, 3 d after treatment, Table 11) was 0.7. It also gave a Yellow leaf number (Pansy plants [2]; 2 mg BA, Delta Premium Pure White, 3 days after treatment, Table 23) of 1.3, a Yellow leaf number (Pansy plants [2]; 2 mg BA, Delta Premium Pure White, 7 days after treatment, Table 23) of 6.2 and a Yellow leaf number (Pansy plants [2]; 2 mg BA, Matrix Yellow, 3 d after treatment, Table 5) of 1.5. It also gave a Yellow leaf number (Pansy plants [2]; 2 mg BA, no water, Matrix Premium Rose, 3 d after treatment, Table 13) of 0.8, a Yellow leaf number (Pansy plants [2]; 2 mg BA, no water, Whispers White, 3 d after treatment, Table 15) of 6.3 and a Yellow leaf number (Pansy plants [2]; 2 mg, Clear Sky Yellow, drought, 3 d after treatment, Table 8) of 0.0. It also gave a Yellow leaf number (Pansy plants [2]; 2 mg, Crown Azure Blue, drought, 3 d after treatment, Table 9) of 0.3, a Yellow leaf number (Pansy plants [2]; 2 mg, Matrix Yellow, drought, 3 d after treatment, Table 7) of 7.8 and a Yellow leaf number (Pansy plants [2]; 2 mg, Matrix Yellow, drought, 3 d after treatment, Table 10) of 7.2. For the same compound, the “Transpiration rate (% of control)” value (Pansy plants [3]; 0.2 mg BA, no water, day 1 after treatment, Table 16) was 101 % of control, the “Transpiration rate (% of control)” value (Pansy plants [3]; 0.2 mg BA, no water, day 2 after treatment, Table 16) was 29 % of control and the “Transpiration rate (% of control)” value (Pansy plants [3]; 0.2 mg BA, no water, day 3 after treatment, Table 16) was 7 % of control. For the same compound, the “Transpiration rate (% of control)” value (Pansy plants [3]; 0.2 mg BA, watered, day 1 after treatment, Table 16) was 102 % of control, the “Transpiration rate (% of control)” value (Pansy plants [3]; 0.2 mg BA, watered, day 2 after treatment, Table 16) was 98 % of control and the “Transpiration rate (% of control)” value (Pansy plants [3]; 0.2 mg BA, watered, day 3 after treatment, Table 16) was 100 % of control. The “Transpiration rate (% of control)” value (Pansy plants [3]; 0.2 mg BA, watered, day 4 after treatment, Table 16) was 101 % of control, the “Transpiration rate (% of control)” value (Pansy plants [3]; 0.2 mg BA, watered, day 5 after treatment, Table 16) was 100 % of control and the “Transpiration rate (% of control)” value (Pansy plants [3]; 0.2 mg BA, watered, day 7 after treatment, Table 16) was 99 % of control. The “Transpiration rate (% of control)” value (Pansy plants [3]; 0.2 mg BA, watered, day 10 after treatment, Table 16) was 100 % of control, the “Transpiration rate (% of control)” value (Pansy plants [3]; 2 mg BA at 0 d, day 1 after ABA treatment, Table 12) was 105 % of control and the “Transpiration rate (% of control)” value (Pansy plants [3]; 2 mg BA at 0 d, day 2 after ABA treatment, Table 12) was 97 % of control. For the same compound, the “Transpiration rate (% of control)” value (Pansy plants [3]; 2 mg BA at 0 d, day 3 after ABA treatment, Table 12) was 98 % of control, the “Transpiration rate (% of control)” value (Pansy plants [3]; 2 mg BA at +1 d, day 1 after ABA treatment, Table 12) was 96 % of control and the “Transpiration rate (% of control)” value (Pansy plants [3]; 2 mg BA at +1 d, day 2 after ABA treatment, Table 12) was 101 % of control. For the same compound, the “Transpiration rate (% of control)” value (Pansy plants [3]; 2 mg BA at +1 d, day 3 after ABA treatment, Table 12) was 107 % of control, the “Transpiration rate (% of control)” value (Pansy plants [3]; 2 mg BA at −1 d, day 1 after ABA treatment, Table 12) was 115 % of control and the “Transpiration rate (% of control)” value (Pansy plants [3]; 2 mg BA at −1 d, day 2 after ABA treatment, Table 12) was 104 % of control. For the same compound, the “Transpiration rate (% of control)” value (Pansy plants [3]; 2 mg BA at −1 d, day 3 after ABA treatment, Table 12) was 109 % of control, the “Transpiration rate (% of control)” value (Pansy plants [3]; 2 mg BA, no water, day 1 after treatment, Table 14) was 108 % of control and the “Transpiration rate (% of control)” value (Pansy plants [3]; 2 mg BA, no water, day 1 after treatment, Table 16) was 101 % of control. For the same compound, the “Transpiration rate (% of control)” value (Pansy plants [3]; 2 mg BA, no water, day 2 after treatment, Table 14) was 71 % of control, the “Transpiration rate (% of control)” value (Pansy plants [3]; 2 mg BA, no water, day 2 after treatment, Table 16) was 34 % of control and the “Transpiration rate (% of control)” value (Pansy plants [3]; 2 mg BA, no water, day 3 after treatment, Table 14) was 54 % of control. For the same compound, the “Transpiration rate (% of control)” value (Pansy plants [3]; 2 mg BA, no water, day 3 after treatment, Table 16) was 14 % of control, the “Transpiration rate (% of control)” value (Pansy plants [3]; 2 mg BA, no water, day 4 after treatment, Table 14) was 35 % of control and the “Transpiration rate (% of control)” value (Pansy plants [3]; 2 mg BA, watered, day 1 after treatment, Table 14) was 109 % of control. For the same compound, the “Transpiration rate (% of control)” value (Pansy plants [3]; 2 mg BA, watered, day 1 after treatment, Table 16) was 99 % of control, the “Transpiration rate (% of control)” value (Pansy plants [3]; 2 mg BA, watered, day 2 after treatment, Table 14) was 102 % of control and the “Transpiration rate (% of control)” value (Pansy plants [3]; 2 mg BA, watered, day 2 after treatment, Table 16) was 97 % of control. For the same compound, the “Transpiration rate (% of control)” value (Pansy plants [3]; 2 mg BA, watered, day 3 after treatment, Table 14) was 101 % of control, the “Transpiration rate (% of control)” value (Pansy plants [3]; 2 mg BA, watered, day 3 after treatment, Table 16) was 98 % of control and the “Transpiration rate (% of control)” value (Pansy plants [3]; 2 mg BA, watered, day 4 after treatment, Table 14) was 101 % of control. The “Transpiration rate (% of control)” value (Pansy plants [3]; 2 mg BA, watered, day 4 after treatment, Table 16) was 97 % of control, the “Transpiration rate (% of control)” value (Pansy plants [3]; 2 mg BA, watered, day 5 after treatment, Table 14) was 99 % of control and the “Transpiration rate (% of control)” value (Pansy plants [3]; 2 mg BA, watered, day 5 after treatment, Table 16) was 101 % of control. The “Transpiration rate (% of control)” value (Pansy plants [3]; 2 mg BA, watered, day 7 after treatment, Table 14) was 98 % of control, the “Transpiration rate (% of control)” value (Pansy plants [3]; 2 mg BA, watered, day 7 after treatment, Table 16) was 97 % of control and the “Transpiration rate (% of control)” value (Pansy plants [3]; 2 mg BA, watered, day 10 after treatment, Table 14) was 101 % of control. The “Transpiration rate (% of control)” value (Pansy plants [3]; 2 mg BA, watered, day 10 after treatment, Table 16) was 102 % of control and the “Transpiration rate (% of control)” value (Pansy plants [3]; 2 mg BA, watered, day 15 after treatment, Table 14) was 98 % of control.

Reference: patent publication US20100022562A1, “Use of Plant Growth Regulators to Reduce Abscisic Acid Related Plant Leaf Yellowing” (priority 2008, published 2010)
